The text below walks through data of paper PMC12959148, “Exploring T. cruzi IMPDH as a promising target through Chagas Box screening and AVN-944 inhibition” (Antimicrobial Agents and Chemotherapy, 2026).

For experiment [1], the system named is T. cruzi amastigotes in H9c2 cells. The experiment can be described thus: Image-based infection assay, intracellular amastigotes in H9c2 host cells. It counts as cell-based. As to conditions: Trypanosoma cruzi, read-out: EC50 against T. cruzi amastigotes in H9c2 cells. How it is done:
To determine EC50 to kill intracellular amastigotes in H9c2 host cells, we used an image-based assay previously described in Alonso-Padilla et al. ([56]). Briefly, T. cruzi trypomastigotes (from LLC-MK2 supernatant) were used to infect H9c2 rat cardiomyocytes overnight. After washing, cells were incubated for 48 h in fresh DMEM, then seeded (1.5 × 10^3 cells/well) into 384-well plates with 50 µL assay volume (0.4% DMSO) containing 0.2 µL of compounds. After 72 h, cells were washed, fixed with 4% paraformaldehyde, and stained with Hoechst 33,342 (4 µg/mL). Images (five per well) were acquired using an Operetta microscope (20× objective) and analyzed with Columbus software. Data on cell count and infection ratio were processed in GraphPad Prism 9.5.0.

Experiment [2] concerns the target T. cruzi IMPDH (Trypanosoma cruzi, UniProt Q4CUG6). Kind of experiment: biochemical. How it is done:
(§1) Compounds were assayed at a single concentration of 10 μM. They were provided by GSK (GlaxoSmithKline) in a 384-well ready-to-use assay microplate containing 25 nL of each sample at 10 mM (100% DMSO). […] Velocities at steady state were calculated in the plate reader (CLARIOstar, BMG LabTech) as the maximum slope. […] After 15 min, resorufin fluorescence (Ex = 570 nm; Em = 590 nm) was measured in a plate reader (CLARIOstar, BMG LabTech). Data were normalized and plotted using GraphPad Prism 9.5.0.
The above-mentioned diaphorase-coupled assay was used. […] TcIMPDH activity was normalized, and the IC50 was calculated using GraphPad Prism 9.5.0.

The target in experiment [3] is human IMPDH isoenzymes. As to conditions: cited from earlier work.
Experiment [4] has as its system T. cruzi. Set-up: method as in PMID 12070425. As to conditions: cited from earlier work.
The subject of experiment [5] is L. donovani IMPDH. As to conditions: read-out: Km of L. donovani IMPDH for substrate; cited from earlier work.
In experiment [6] the test system is T. brucei IMPDH. Set-up: method as in PMID 23369253. As to conditions: read-out: Km of T. brucei IMPDH for substrate; cited from earlier work.
The subject of experiment [7] is human IMPDHs. As to conditions: read-out: Km of human IMPDHs for substrate; cited from earlier work.
The test system of experiment [8] is recombinant TcIMPDH. Kind of experiment: TcIMPDH Michaelis-Menten kinetics, NADH fluorescence direct assay. It counts as biochemical, Trypanosoma cruzi. As to conditions: 25°C, pH 7, other substrate at 1 mM, 1 μM enzyme. How it is done: Em = 485 nm) at 25°C, in black 384-wells microplates. Fluorescence was recorded every 30 s over 10 min using a CLARIOstar plate reader (BMG LabTech) and steady-state velocities were calculated from the maximum slope of the fluorescence curve. All reactions were performed in triplicate, under optimized buffer conditions: 50 mM tri-sodium citrate (pH 7), 100 mM KCl, and 1 mM DTT. For both substrates, 1 μM of purified recombinant […] was used.

Experiment [9] has as its system CYP51. Further details: method as in PMID 25740547. As to conditions: cited from earlier work.
The target in experiment [10] is TcIMPDH (Trypanosoma cruzi, UniProt Q4CUG6). The experiment can be described thus: Chagas Box single-concentration screening for TcIMPDH inhibitors. It counts as biochemical. How it is done: as §1
Chain of TcIMPDH (Q4CUG6 entry or part of it): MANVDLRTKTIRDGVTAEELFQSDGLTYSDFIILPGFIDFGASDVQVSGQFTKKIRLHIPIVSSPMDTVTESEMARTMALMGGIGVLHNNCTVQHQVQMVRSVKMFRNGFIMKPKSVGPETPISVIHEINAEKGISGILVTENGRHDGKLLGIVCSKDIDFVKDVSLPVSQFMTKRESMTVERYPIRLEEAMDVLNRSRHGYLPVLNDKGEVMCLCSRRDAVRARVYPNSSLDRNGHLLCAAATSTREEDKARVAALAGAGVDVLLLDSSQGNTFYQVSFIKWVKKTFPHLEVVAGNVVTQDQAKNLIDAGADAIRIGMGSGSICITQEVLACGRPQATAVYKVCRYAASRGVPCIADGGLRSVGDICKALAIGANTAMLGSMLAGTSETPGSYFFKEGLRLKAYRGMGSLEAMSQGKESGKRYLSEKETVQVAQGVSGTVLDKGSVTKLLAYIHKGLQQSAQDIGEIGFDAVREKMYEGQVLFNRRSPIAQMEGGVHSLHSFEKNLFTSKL
Experiment [11] has as its system T. cruzi amastigotes. Set-up: method as in PMID 25740547. As to conditions: calculated from reported pEC50 value; read-out: EC50 anti-amastigote activity, previously reported; cited from earlier work.
Setting [12] is: H9c2, 72 h, image-based, at least two biological replicates.
The mark [13] stands for this setting: read-out: IC50 against T. cruzi IMPDH.

Each structure is given as a SMILES string. “And” between values parts separate entries of the source, which are not always exact repeats. Equal entries are not always repeated. “Also recorded” adds a separate entry of the source. Where two headings read alike, the source gives them in different places.

Chain of T. cruzi IMPDH (Q4CUG6 entry or part of it): as above

Consider `COc1cc(NC(=O)Nc2cccc(CNC(=O)O[C@@H]3CCOC3)c2)ccc1-c1cnco1` [(R)-Merimepodib], for which, in experiment [1] (setting [12]), the concentration for a half-maximal effect (EC50) (in general, the concentration that produces a half-maximal response) turned out to be 3000 nM. Moreover, inhibition in [2] was half-maximal at 370 nM (IC50).
For `COc1cc(NC(=O)Nc2cccc(CNC(=O)O[C@H]3CCOC3)c2)ccc1-c1cnco1` [(S)-Merimepodib] the same measures were 4800 nM and 210 nM.
Turning to `CC[C@H](CC#N)OC(=O)N[C@@H](C)c1cccc(NC(=O)Nc2ccc(-c3cnco3)c(OC)c2)c1` [AVN-944], the EC50 in experiment [1] (H9c2, 72 h) was 400 nM. Further, the Ki (as a rule, a measure of affinity in units of concentration, obtained from inhibition or displacement) is 6 to 10 nM in experiment [3] and roughly 81 nM in [2]. Also, the IC50 (as a rule, the concentration needed to halve the response being measured) in [2] stood at 200 nM.
As for `O=C(Cn1ccnc1[N+](=O)[O-])NCc1ccccc1` [Benznidazole], in [1] (setting [12]), the EC50 was found to be 3000 nM.
For `NC(=O)c1ncn([C@@H]2O[C@H](CO)[C@@H](O)[C@H]2O)c1O` [Mizoribine], the “inhibition of TcIMPDH activity” value in [2] is “did not show measurable inhibition; also recorded: inactive”.
As to `COc1c(C)c2c(c(O)c1C/C=C(\C)CCC(=O)OCCN1CCOCC1)C(=O)OC2` [Mycophenolate mofetil], the EC50 in experiment [1] (setting [12]) was determined as 1500 nM. Besides, in [2] (setting [13]), the IC50 worked out at 4400 nM. In [4], the “parasitemia in Chagas murine model” value was “reduction of parasitemia” and the “survival / parasitological cure in Chagas murine model” value is listed as “fails to improve survival outcomes or achieve parasitological cure”.
Consider `NC(=O)c1ccc[n+]([C@@H]2O[C@H](COP(=O)([O-])OP(=O)(O)OC[C@H]3O[C@@H](n4cnc5c(N)ncnc54)[C@H](O)[C@@H]3O)[C@@H](O)[C@H]2O)c1` [NAD^+, nicotinamide adenine dinucleotide oxidized form], for which the Km – broadly, the concentration of substrate that gives half-maximal velocity – in experiment [5] was 390 µM; in experiment [6] it was 1300 µM; in experiment [7], 6 to 70 µM; in experiment [8], 292 µM.
In the case of `COc1cc(NC(=O)Nc2cccc(CNC(=O)OC3CCCCC3)c2)ccc1-c1cnco1` [TCMDC-143376], the half-maximal inhibitory concentration (IC50) was roughly 25000 nM in experiment [9]; less than 10000 nM in experiment [10] (estimated from inhibition at the fixed concentration 10 μM, read-out: IC50 suggested by screening); 4000 nM in experiment [2] (setting [13]). In experiment [10] (10 μM compound, two independent runs, read-out: inhibition of TcIMPDH in primary screening), the inhibition – broadly, how much of the control response was suppressed – at 10 µM is 55 to 60%. Also, the concentration for a half-maximal effect (EC50) in experiment [11] was ~15900 nM and 15900 nM.
